# Laboratory results: patent US12014835B2, “Methods for evaluating therapeutic benefit of combination therapies” (Vanderbilt University, priority 2020, dated 2024)
# Tests used:
# Assay type in all cases: cell-based
# [1] = tested on: A2058; assay: MuSyC analysis of PLX4720 in combination with NOX5 inhibitor DPI; details: in combination with PLX4720, A2058 cell line
# From the text: FIG. 4E depicts pairwise comparison between SC01 and SC10 of DEGs (FDR<0.001) identified using DESeq2 (Love, M. I. et al., Genome Biol. (2014) Vol. 15, p. 550). The 200 identified DEGs (ANOVA between three subclones) are in black. The dotted red lines denote ±4-fold change. FIG. 4F depicts the dose-response surface for PLX4270 plus DPI (a NOX5 inhibitor) in the A2058 cell line, using the same format as in FIGS. 2B and 2C.
# FIGS. 4G, 4H, and 4I depict additional MuSyC analysis of the effect of the combination therapy with PLX4270 and DPI. FIG. 4G depicts a DSD for NOX5i (DPI) plus BRAFi (PLX4720). FIG. 4H depicts the correlation (Pearson r) of NOX5 expression with observed synergistic efficacy (βobs). FIG. 4I depicts the correlation (Pearson r) of NOX5 expression with synergistic potency, where α2 is DPI's effect on PLX4720 potency. Error bars represent parameter uncertainty calculated in MCMC fitting.
# To study NOX5's contribution to the potency or efficacy of BRAFi, PLX4720 was tested in combination with a NOX5 inhibitor, DPI, in a panel of 7 melanoma cell lines selected based on differential NOX5 expression. […] See also, Meyer et al. in Cell Systems (2010) vol 8, pages 97-108, which is hereby incorporated by reference for all purposes.
# [2] = tested on: PC9 cells; assay: MuSyC drug combination screen with osimertinib, DIP rate, high-throughput in vitro assay; details: for synergistic efficacy (in words): drug-synergy diagram; for observed synergistic efficacy (βobs): at the maximum tested dose range
# Procedure: FIG. 2A illustrates a high-throughput pipeline for generating dose-response surfaces. Initial drug matrix is prepared on a 384-well plate and transferred to cells seeded at subconfluent densities. Cells are engineered to express a fluorescently tagged histone (H2B-RFP), allowing for cell counts using automated segmentation software. Each condition is imaged every 6-8 h, resulting in growth curves. The growth curves are fit to determine the drug-induced proliferation (DIP) rate (slope of dotted line, vide infra) to quantify drug effect. This matrix of DIP rates is fit to our equation to extract synergy parameters.
# MuSyC was applied to evaluate the synergistic potency and efficacy of a 64-drug panel (see Table 1 for drugs, drug classes, nominal targets, and tested concentration ranges) in combination with osimertinib, a mutant EGFR-tyrosine kinase inhibitor recently approved for first-line treatment of EGFR-mutant NSCLC. The selected drugs span a diverse array of cellular targets that can be broadly grouped into four categories: kinases, receptors and channels, epigenetic regulators, and mitotic checkpoints, each with several sub-categories. The combinations were tested in PC9 cells, a canonical model of EGFR-mutant NSCLC using a high-throughput, in vitro, drug-screening assay (FIG. 2A).
# Applying this algorithm, synergy parameters (α1, α2, and βobs) were extracted from fitted surfaces for all osimertinib combinations (βobs is the observed synergistic efficacy at the maximum tested dose range).
# [3] = tested on: SKMEL28_SKIN; assay: BRAFi sensitivity, DIP rate
# Procedure: (§1) FIGS. 4A, 4B, and 4C depict data used to identify and characterize the top 200 differentially expressed genes (DEGs) between subclones of a BRAF-mutant melanoma cell line (SKMEL5) with differential sensitivity to BRAFi. FIG. 4A depicts growth curves of differentially sensitive, single-cell-derived subclones from SKMEL5 treated with 8 μM PLX4720. Gray curves represent colony growth according to the clonal fractional proliferation assay (Tyson, D. R. et al., Nature Methods (2012) Vol. 9, pp. 923-928). The average population response is indicated in the black curve. SC01, SC07, and SC10 were subsequently used to identify 200 DEGs. FIG. 4B depicts the top gene set enrichment terms for the identified 200 DEGs. FIG. 4C depicts a distribution of the correlation between the identified 200 DEGs' expression and BRAFi insensitivity. Drug sensitivity was quantified as DIP rate measured in 8 μM PLX4720. The threshold of p value <0.05 is annotated in pink.
# (§2) Specifically, gene expression was quantified using RNA sequencing (RNA-seq) and the top 200 differentially expressed genes (DEGs) (FDR<0.001) were identified. […] The correlation was computed of the 200 DEGs' expression to BRAFi sensitivity across a 10-cell-line panel using expression data from Subramanian, A. et al. (2017). in Cell vol. 171, 1437-1452.e17.
# [4] = tested on: SKMEL5_SKIN; assay: BRAFi sensitivity, DIP rate
# Procedure: as §1, §2
# [5] = tested on: WM115_SKIN; assay: BRAFi sensitivity, DIP rate
# Procedure: as §1, §2
# [6] = tested on: A375_SKIN; assay: BRAFi sensitivity, DIP rate
# Procedure: as §1, §2
# [7] = tested on: WM88_SKIN; assay: BRAFi sensitivity, DIP rate
# Procedure: as §1, §2
# [8] = tested on: WM793_SKIN; assay: BRAFi sensitivity, DIP rate
# Procedure: as §1, §2
# [9] = tested on: A2058_SKIN; assay: BRAFi sensitivity, DIP rate
# Procedure: as §1, §2
# [10] = tested on: WM1799_SKIN; assay: BRAFi sensitivity, DIP rate
# Procedure: as §1, §2
# [11] = tested on: WM983B_SKIN; assay: BRAFi sensitivity, DIP rate
# Procedure: as §1, §2
# [12] = tested on: WM2664_SKIN; assay: BRAFi sensitivity, DIP rate
# Procedure: as §1, §2
# [13] = in combination with osimertinib, PC9 cells
smiles,measurement,setting,value
c1ccc2c(c1)[I+]c1ccccc1-2 [DPI],observed synergistic efficacy (βobs),[1],1.42 ±0.05
COC(=O)Nc1nc2ccc(Oc3ccc(NC(=O)Nc4ccccc4)cc3)cc2[nH]1 [GW694590a],synergistic efficacy (in words),[2]; [13],synergistically efficacious
Cn1cc(CNCC2CCN(c3ncc(C(=O)NO)cn3)CC2)c2ccccc21 [quisinostat],total efficacy of the combination (in words),"[2]; in combination with osimertinib, NSCLC screen",greatest total efficacy
CC[C@]1(O)C[C@@H]2CN(CCc3c([nH]c4ccccc34)[C@@](C(=O)OC)(c3cc4c(cc3OC)N(C)[C@H]3[C@@](O)(C(N)=O)[C@H](O)[C@]5(CC)C=CCN6CC[C@]43[C@@H]65)C2)C1 [vindesine],synergistic efficacy (in words),[2]; [13],upward shift along the axis of synergistic efficacy
CN(C)c1ccc(C(=O)NCCCCCCC(=O)NO)cc1 [M344],increase in efficacy over osimertinib alone,[2]; [13],125%
same,synergistic potency log(α2): how osimertinib's potency is modulated by the drug,[2]; [13],−0.90±0.01
same,observed synergistic efficacy (βobs),[2]; [13],1.25±0.03
Cc1cc(Nc2ncc(Cl)c(Nc3ccccc3S(=O)(=O)C(C)C)n2)c(OC(C)C)cc1C1CCNCC1 [ceritinib],EC50,"[2]; Homo sapiens, PC-9, single agent, PC9 cells, DIP rate",2.02 µM
same,synergistic potency log(α2): how osimertinib's potency is modulated by the drug,[2]; [13],6.25±0.50
same,observed synergistic efficacy (βobs),[2]; [13],0.28 ±0.003
CCCCc1oc2ccc(NS(C)(=O)=O)cc2c1C(=O)c1ccc(OCCCN(CCCC)CCCC)cc1 [dronedarone],synergistic efficacy (in words),[2]; [13],most antagonistic
Nc1ccccc1NC(=O)c1ccc(CNC(=O)OCc2cccnc2)cc1 [entinostat],observed synergistic efficacy (βobs),[2]; [13],0.84±0.027
CCCS(=O)(=O)Nc1ccc(F)c(C(=O)c2c[nH]c3ncc(Cl)cc23)c1F [PLX4270],DIP Rate at [8 uM] PLX4270,[3],0.010 h⁻¹
same,DIP Rate at [8 uM] PLX4270,[4],0.014 h⁻¹
same,DIP Rate at [8 uM] PLX4270,[5],0.013 h⁻¹
same,DIP Rate at [8 uM] PLX4270,[6],0.005 h⁻¹
same,DIP Rate at [8 uM] PLX4270,[7],-0.020 h⁻¹
same,DIP Rate at [8 uM] PLX4270,[8],0.015 h⁻¹
same,DIP Rate at [8 uM] PLX4270,[9],0.030 h⁻¹
same,DIP Rate at [8 uM] PLX4270,[10],-0.002 h⁻¹
same,DIP Rate at [8 uM] PLX4270,[11],0.021 h⁻¹
same,DIP Rate at [8 uM] PLX4270,[12],0.003 h⁻¹
